Experiments:
[1] = test system: M3 Cloudman melanoma cells; experiment: Live cell video microscopy of melanoma cells (morphology, contact inhibition); format: cell-based, mouse
Protocol: Cloudman S-91 mouse melanoma cells (sub-clone M-3, CCL 53.1; American Type Culture Collection, Rockville, Md.) were grown in RMPI medium supplemented with 10% fetal bovine serum (Invitrogen, Inc) and 5% penicillin-streptomycin (Invitrogen, Inc). Mouse breast cancer cells (66Cl-1; American Type Culture Collection, Rockville, Md.) that are estrogen-receptor negative were grown in DMEM medium supplemented with 10% fetal bovine serum (Invitrogen, Inc) and 5% penicillin/streptomycin (Invitrogen, Inc). Human T-cell leukemic lymphocytes (CEM; American Type Culture Collection, Rockville, Md.) were grown in MEM medium supplemented with 7% fetal calf serum. Cultures were passaged twice a week.
Cells were plated on 35 mm tissue culture dishes at concentration of 10^5 cells/plate, unless stated otherwise, and incubated at 37° C., 5% CO2. After 24 hours, methyl sulfone (0-10% in medium) was added to appropriate plates and immediately videotaped with a Nikon TE300 inverted microscope equipped with a 10×0.25 NA Plan Achromat objective lens. Control cells (no drug) were videotaped as described above. Time series (10 min) of phase contrast images were acquired at a video rate of 1 frame/5 s with a Watec-902B CCD video camera (Watec Corp., Japan) via the stream acquisition option of Metamorph image acquisition and analysis software (Universal Imaging Corp., Downington, Pa.). During recordings, cells were kept at 37° C. with 10 mM Hepes, pH 7.4. Time series of cells +/−2% methyl sulfone were obtained every 24-48 hours for up to 6 weeks.
M3 Cloudman melanoma cells were plated into culture dishes containing RPMI medium. After 24 hour media was changed to control medium (no drug) or to media containing different concentrations of methyl sulfone (1-10% methyl sulfone in RPMI medium). Cells were examined by live cell video microscopy immediately after adding drug and every 24 hours up to 144 hours.
The possibility that the data generated from treating cells with methyl sulfone was a nonspecific effect due to changes in extracellular osmolarity was considered. To test this possibility an equimolar concentration of urea was substituted for 2% methyl sulfone; urea has a chemical structure and dipolar moment that is similar to methyl sulfone. […] We next replaced 2% methyl sulfone with an equimolar concentration of dimethyl sulfoxide (DMSO).

[2] = test system: neutrophils from healthy volunteers; experiment: Apoptosis of normal neutrophils by Flow Cytometry; format: cell-based, human; details: 10% methyl sulfone, 20 hours
Protocol: Blood was drawn from healthy volunteers and white blood cells (e.g., lymphocytes, neutrophils) were enriched using Ficoll-Plaque. Cells were incubated in Petri dishes containing MEM with 7% fetal calf serum in a CO2 (5%) incubator at 37° C.; Methyl sulfone was present at concentrations of 0, 3, 6, or 10%. After 20 hours, cells were incubated with antibodies specific to T-lymphocytes (CD3 and CD4 T-cells), B-lymphocytes (B-cells) and neutrophils, and the percent of apoptotic cells was determined by Flow Cytometry. This is a technique that identifies specific cell types (e.g., CD3 T-cells, CD4 T-cells, B-cells, neutrophils) within a mixed population of blood cells, and then determines whether the cells are alive or apoptotic.
After 20 hours, cells were incubated with fluorescent antibodies to identify T-cells, B-cells and neutrophils, and then processed by Flow Cytometry (FIG. 15).

methyl sulfone was tested, and the contact inhibition ([1]; 2% methyl sulfone, by 24 hours) was “contact inhibited”, the “cell morphology after re-attachment” value ([1]; 2% methyl sulfone, over the next few hours) was “flattened morphology” and the “morphology immediately after adding drug” value ([1]; all concentrations (1-10% in RPMI medium)) was “cells became round with some cells detaching from culture plates”. The effect on neutrophils [2] was “unharmed”.

Source: patent publication US10363229B2, “Methods and compositions for the treatment of cancer” (priority 2009, dated 2019)
